From patent US8501446B2 (Vertex Pharmaceuticals Incorporated, priority 2004, dated 2013) come the findings set out here.

Molecules are shown by their SMILES.

The target in assay [1] is T1, JAK3 (Homo sapiens, UniProt P52333).
T1 sequence (P52333 1-1124): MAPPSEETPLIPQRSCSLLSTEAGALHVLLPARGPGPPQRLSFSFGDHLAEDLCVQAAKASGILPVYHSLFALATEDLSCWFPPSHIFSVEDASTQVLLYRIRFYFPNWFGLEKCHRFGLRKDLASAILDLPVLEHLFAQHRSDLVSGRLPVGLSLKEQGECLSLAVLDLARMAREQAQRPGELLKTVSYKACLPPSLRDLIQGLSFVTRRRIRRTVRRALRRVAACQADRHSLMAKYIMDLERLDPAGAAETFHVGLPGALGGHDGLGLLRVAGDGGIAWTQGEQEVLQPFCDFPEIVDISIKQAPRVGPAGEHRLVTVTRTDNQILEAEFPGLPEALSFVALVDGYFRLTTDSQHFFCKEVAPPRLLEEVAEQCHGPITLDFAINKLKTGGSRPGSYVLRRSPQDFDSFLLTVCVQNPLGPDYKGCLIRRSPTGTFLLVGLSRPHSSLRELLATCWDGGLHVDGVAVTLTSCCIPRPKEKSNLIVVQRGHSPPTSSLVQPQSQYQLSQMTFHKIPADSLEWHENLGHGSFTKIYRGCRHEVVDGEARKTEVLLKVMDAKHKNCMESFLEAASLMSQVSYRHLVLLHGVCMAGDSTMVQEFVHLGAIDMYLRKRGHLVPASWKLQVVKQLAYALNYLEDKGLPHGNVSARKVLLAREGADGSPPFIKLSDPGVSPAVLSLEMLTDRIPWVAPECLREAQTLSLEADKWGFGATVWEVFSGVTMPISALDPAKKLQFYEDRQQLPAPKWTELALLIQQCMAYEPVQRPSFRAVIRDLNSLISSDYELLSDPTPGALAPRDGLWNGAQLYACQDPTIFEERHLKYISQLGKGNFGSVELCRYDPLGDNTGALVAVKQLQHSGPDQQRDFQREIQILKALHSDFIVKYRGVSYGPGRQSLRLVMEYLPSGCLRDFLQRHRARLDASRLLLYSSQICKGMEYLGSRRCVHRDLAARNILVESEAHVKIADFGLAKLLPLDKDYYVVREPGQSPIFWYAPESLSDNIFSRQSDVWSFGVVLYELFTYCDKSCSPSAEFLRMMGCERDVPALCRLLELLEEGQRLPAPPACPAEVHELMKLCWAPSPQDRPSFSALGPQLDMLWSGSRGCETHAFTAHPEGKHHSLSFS
Kind of assay: JAK3 inhibition assay (standard radioactive enzyme assay). The assay is classed as biochemical. Conditions: average Ki if more than one value determined.

Assay [2] concerns the target T2, ROCK I (AA 6-553) (Homo sapiens, UniProt Q13464).
T2 construct: ROCK I (AA 6-553)
Kind of assay: ROCK inhibition assay, standard coupled enzyme system ("Enzyme"). The note with it: enzyme-linked assay. It counts as biochemical. In outline:
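ROCK I (AA 6-553) at 45 nM and 30 °C with 45 μM ATP and 200 μM peptide, in 100 mM HEPES pH 7.5, 10 mM MgCl2, 25 mM NaCl, 2 mM DTT, 1.5% DMSO. ADP output read by a PK/LDH coupled system: 2.5 mM PEP, 350 μM NADH, 30 μg/ml PK, 10 μg/ml LDH.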

T2 sequence (Q13464 6-553, species assumed): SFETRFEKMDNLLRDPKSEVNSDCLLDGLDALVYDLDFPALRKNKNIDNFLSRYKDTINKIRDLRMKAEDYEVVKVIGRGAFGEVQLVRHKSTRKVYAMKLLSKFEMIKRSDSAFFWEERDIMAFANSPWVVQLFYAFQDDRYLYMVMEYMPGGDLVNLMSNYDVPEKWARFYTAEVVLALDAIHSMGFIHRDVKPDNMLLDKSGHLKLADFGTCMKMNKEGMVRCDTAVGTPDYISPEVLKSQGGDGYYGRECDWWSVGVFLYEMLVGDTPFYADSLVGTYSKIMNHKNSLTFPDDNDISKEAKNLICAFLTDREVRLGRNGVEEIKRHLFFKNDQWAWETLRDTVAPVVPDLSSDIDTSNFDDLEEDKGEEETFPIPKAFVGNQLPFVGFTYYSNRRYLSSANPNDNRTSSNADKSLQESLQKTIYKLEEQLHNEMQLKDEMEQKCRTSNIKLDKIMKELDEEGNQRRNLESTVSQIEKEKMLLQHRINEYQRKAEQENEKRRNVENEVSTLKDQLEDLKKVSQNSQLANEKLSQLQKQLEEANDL

One may read the Ki as a measure of affinity in units of concentration, obtained from inhibition or displacement. Turning to `CCOC(=O)N1CCCN(c2nccc(-c3c[nH]c4ncc(OC)cc34)n2)CC1` [Compound 33], the Ki in assay [1] and in assay [2] was under 0.5 µM throughout.
On to `CC(=O)N1[C@H](C)CN(c2cccc(-c3c[nH]c4ncc(Cl)cc34)n2)C[C@@H]1C` [Compound 19], for which the Ki in assay [1] and in assay [2] was under 0.5 µM throughout.
For the compound `COC(=O)c1cnc2[nH]cc(-c3cccc(N4C[C@@H](C)N(C(C)=O)[C@@H](C)C4)n3)c2c1` [Compound 35], the Ki in assay [1] and in assay [2] was under 0.5 µM in each case.
With `C[C@H](Nc1cccc(-c2c[nH]c3ncc(Cl)cc23)n1)c1ccc(F)cc1` [Compound 395], the Ki was under 0.5 µM in assay [1] and 0.5 to 5 µM in assay [2].
For `C[C@H](Nc1nc(-c2c[nH]c3ncc(Cl)cc23)ncc1F)C(=O)NCC(F)(F)F` [Compound 369], in that order: under 0.5 µM and 0.5 to 5 µM.
In the case of `COc1cnc2[nH]cc(-c3cccc(N4C[C@@H](C)N(C(C)=O)[C@@H](C)C4)n3)c2c1` [Compound 18], the Ki was under 0.5 µM in assay [1] and 0.5 to 5 µM in assay [2].
